Where a name gives a salt, the structure may show the parent alone.
test system: IL-17F mRNA expression; assay: Ex-vivo human skin model, IL-17F mRNA expression; assay type: cell-based; details: four different donors, compound 10 μM
Experimental: (§1) Fresh ex vivo human skin from healthy bariatric patients, that underwent abdominoplasty skin removal, was de-fatted and dermatomed at 750 μm. Dermatomed skin was incubated twice for 5-10 minutes at room temperature in PBS containing a antibiotic/antimycotic solution: Fungizone (Invitrogen #15290018), PSG (Fisher #BW17718R) and Gentamicin (Invitrogen #15750060). Skin was treated aseptically from this point on. Individual skin samples were obtained by 10 mm punch biopsy and placed in a 0.4 μm PCF membrane transwell (Millicell #PIHP01250) containing 30 μl of a 64% bovine collagen solution. After a 30 minute incubation at 37° C., which allows the collagen solution time to set, skin samples on transwells were transferred to 6-well plates (1 sample per well) and the lower chamber filled with 1 ml complete media (Cornification Media)+hydrocortisone (final concentration of 0.4 μg/ml) with or without test compounds at 10 μM (day −3) and allowed to rest overnight (16-18 h) at 37° C. Next, media was aspirated from the lower chamber, replaced with 1 ml complete media without hydrocortisone and incubated at 37° C. for 1 h. This constituted a ‘wash’ step. Following the hydrocortisone washout, media was again aspirated from the lower chamber and replaced with 1.0 ml complete media without hydrocortisone with or without GSK compounds at 10 μM (day −2). Cultures were incubated at 37° C. in a humidified chamber and media was refreshed one more day (day-1). The following day (day-0), cultures were stimulated for 24 h with a freshly made Th17 cytokine cocktail (CD3, 1 μg/ml, CD28, 2 μg/ml, IL-1b, 10 ng/ml, IL-6, 5 ng/ml, TGFb, 1 ng/ml, IL-21, 10 ng/ml, anti-IL-4, 1 μg/ml and anti-INFg, 1 μg/ml) with or without test compounds at 10 μM. Upon harvest (day +1), skin samples were minced with a razor blade and transferred to 1.5 ml RNAse-free tubes with 1 ml RNAlater solution until later analysis by RT-PCR (stored at −80 C).
(§2) Total RNA was isolated from about 30-40 mg of tissue using Qiagen's (Cat #74106) Mini RNA Isolation kit. Briefly, tissue was homogenized in the Precellys-24 machine using 300 μL of RLT buffer supplemented with 1% 2-Beta-Mercapto-Ethanol at 6300 rpm for 30 seconds for 6 cycles with a 2-minute ice break. 600 μL of water containing Proteinase K was added to the homogenate and digested at 55 C for 15 minutes. Digested tissue was spun down for 3 minutes at 10,000×g and the supernantant was used for RNA isolation using Qiagen's RNeasy mini columns according to manufacturer's protocol. 100 ng of RNA was used as template in a 20 μL PCR volume using Applied Biosciences RNA-to-CT 1 Step kit (AB Catalog #4392938) as well as the specific TaqMan probe for each gene to be quantified. Life Technologies FAM labeled Probes Catalog Numbers are as follows: ACTb=Hs01060665_g1, IL-17A=Hs00174383_m1, IL-17F=Hs00369400_m1, IL-22=Hs01574154_m1. All probes used (except for ACTb) expand an Exon. Applied Biosciences' Master Mix has a ROX dye internal control. OneStepPlus PCR machine was used for both the RT step and the 40 amplification cycles. RNA levels of gene of interest's relative expression were calculated using the Delta Delta CT formula.
(§3) First delta: Normalized to ACTb gene expression
(§4) Second delta: Normalized to sample 13 (Day 0+DMSO) for the gene of interest.

SMILES | gene transcription of il17f (result in words)
CCc1ccc(N(CC(C)C)S(=O)(=O)c2ccc(OCC3CCOCC3)c(CO)c2)cc1 [Example E124, N-(4-ethylphenyl)-3-(hydroxymethyl)-N-isobutyl-4-((tetrahydro-2H-pyran-4-yl)methoxy)benzenesulfonamide] | inhibited

test system: IL-17A secreted from antiCD3/CD28 stimulated Peripheral Blood Mononuclear cells (PBMC); assay: Peripheral Blood Mononucleocyte Cell Assay (PBMC Assay - IL-17); assay type: cell-based; details: Homo sapiens, 48 h, IL-17A release, read-out: mean pIC50 (converted)
Experimental: Peripheral Blood Mononucleocvte Cell Assay (PBMC Assay—IL-17) […]
This assay is designed to measure levels of IL-17A secreted from antiCD3/CD28 stimulated frozen Peripheral Blood Mononuclear cells (PBMC) isolated from human blood with the aim of identifying inhibitors of IL-17A release.
2. The compounds for screening are dispensed into a master plate at 10 mM top concentration which are serially diluted 1:3 across 11 points in DMSO, then 500 nL is transferred into a 384-well flat-bottomed Greiner plate to which 50 uL of cell suspension is added: for the single shot screening the highest concentration of compound is 10^−5M; for 11 point full curve dose response studies the highest concentration is 10^−4 M.
As a low control, DMSO (as supplied, for example, by VWR) (final concentration 1%) in column 6 (16 points).
As a high control, 5-(4-fluorophenyl)-2-ureidothiophene-3-carboxamide (obtainable from, for example, Sigma) at a final concentration of 10^−4 M in DMSO should be used in column 18 (16 points).
9. Make the cell suspension at the concentration 8×10^5 cells/mL to give a final number of 40,000 cells/well.
1. Add well mixed CD3/CD28 Dynabeads (as supplied, for example, by Dynal) to achieve ratio bead:cell=2:1 (ie. a dilution of 1 in 20). Mix thoroughly.
2. Dispense the suspension into the 384 Assay Plates using Multidrop (50 uL per well). If the volume of cell suspension is large, mix the suspension after dispensing into every other plate.
3. Cover the plates with the lids and place them to the humidified incubator (37° C., 5% CO2) for 48 hours.
1. Transfer 10 uL of supernatants from assay plates to the MSD plates using Cybiwell. Ensure that all wells are covered with the solution. Tap the plate gently, if some of the wells are not covered with the supernatant.
3. Add 10 uL of MSD IL-17 detecting antibody using multidrop (1 ug/mL in D-PBS without Ca^2+ and Mg^2+ (supplied, for example, by Gibco)).
4. Cover the plates with adhesive foil and incubated with shaking for 3 hours at room temperature
7. Add 35 uL of MSD Read Buffer T×2 using multidrop.
8. Read plates on MSD MA6000 reader using the 384 well plate protocol as per manufacturer's instructions.

SMILES | IC50
Cc1ccc(N(CC(C)C)S(=O)(=O)c2ccc(OCC3(C)COCC(=O)N3)cc2)c(C)c1 (centres unmarked) [Example E11] | < 1000 nM
Cc1ccc(N(CC(C)C)S(=O)(=O)c2ccc(C(O)CN3CCOCC3)cc2)c(C)c1 (centres unmarked) [Example E120, N-(2,4-dimethylphenyl)-4-(1-hydroxy-2-morpholinoethyl-N-isobutylbenzenesulfonamide hydrochloride] | < 1000 nM
Cc1ccc(N(CC(C)C)S(=O)(=O)c2ccc(OC[C@H]3NCCO[C@@H]3C)cc2)c(C)c1 [Example E36] | < 1000 nM
Cc1ccc(N(CC(C)C)S(=O)(=O)c2ccc(C(O)CN3CCOCC3)c(C)c2)c(C)c1 (centres unmarked) [Example E90, N-(2,4-dimethylphenyl)-4-(1-hydroxy-2-morpholinoethyl)-N-isobutyl-3-methylbenzenesulfonamide] | < 1000 nM
Cc1ccc(N(CC(C)C)S(=O)(=O)c2ccc(OCC3CCNCC3)cc2)c(C)c1 [Example E8, N-(2,4-dimethylphenyl)-N-isobutyl-4-(piperidin-4-ylmethoxy)benzenesulfonamide, Trifluoroacetic acid salt] | < 1000 nM
Cc1ccc(N(CC(C)C)S(=O)(=O)c2ccc(C(O)CN3CCOCC3)cc2C)c(C)c1 (centres unmarked) [Example E88] | < 1000 nM
CCc1ccc(N(CC(C)C)S(=O)(=O)c2ccc(C(O)CN3CCOCC3)cc2)cc1 (centres unmarked) [Example E113, N-(4-ethylphenyl)-4-(1-hydroxy-2-morpholinoethyl)-N-isobutylbenzenesulfonamide] | < 1000 nM
Cc1ccc(N(CC(C)C)S(=O)(=O)c2ccc(N3CCOCC3)cc2)c(C)c1 [Example E33] | < 1000 nM
Cc1ccc(N(CC(C)C)S(=O)(=O)c2ccc(C(O)CN3CCOCC3)c(Cl)c2)c(C)c1 (centres unmarked) [Example E84] | < 1000 nM
Cc1ccc(N(CC(C)C)S(=O)(=O)c2ccc(C(O)CN3CCOCC3)cc2)c(C)c1 (single isomer, unassigned) [Example E122, N-(2,4-dimethylphenyl)-4-(1-hydroxy-2-morpholinoethyl)-N-isobutylbenzenesulfonamide] | < 1000 nM
Cc1ccc(N(CC(C)C)S(=O)(=O)c2ccc(C(O)CN3CCOCC3)c(F)c2)c(C)c1 (centres unmarked) [Example E87] | < 1000 nM
Cc1ccc(N(CC(C)C)S(=O)(=O)c2ccc(OCC3CCC(C)CC3)cc2)c(C)c1 (centres unmarked) [Example E47] | > 100000 nM
Cc1ccc(N(CC(C)C)S(=O)(=O)c2ccc(C(CO)N3CCOCC3)c(C)c2)c(C)c1 (centres unmarked) [Example E89, N-(2,4-dimethylphenyl)-4-(2-hydroxy-1-morpholinoethyl)-N-isobutyl-3-methylbenzenesulfonamide] | < 1000 nM

test system: IL-22 mRNA expression; assay: Ex-vivo human skin model, IL-22 mRNA expression; assay type: cell-based; details: four different donors, compound 10 μM
Experimental: as §1, §2, §3, §4

SMILES | gene transcription of il22 (result in words)
CCc1ccc(N(CC(C)C)S(=O)(=O)c2ccc(OCC3CCOCC3)c(CO)c2)cc1 [Example E124, N-(4-ethylphenyl)-3-(hydroxymethyl)-N-isobutyl-4-((tetrahydro-2H-pyran-4-yl)methoxy)benzenesulfonamide] | inhibited

test system: IL-17A mRNA expression; assay: Ex-vivo human skin model, IL-17A mRNA expression; assay type: cell-based; details: four different donors, compound 10 μM
Experimental: as §1, §2, §3, §4

SMILES | gene transcription of il17a (result in words)
CCc1ccc(N(CC(C)C)S(=O)(=O)c2ccc(OCC3CCOCC3)c(CO)c2)cc1 [Example E124, N-(4-ethylphenyl)-3-(hydroxymethyl)-N-isobutyl-4-((tetrahydro-2H-pyran-4-yl)methoxy)benzenesulfonamide] | inhibited

molecular target: T1, Human RORγ Ligand Binding Domain (RORγ-LBD) (Homo sapiens, UniProt P51449); assay: Dual Fluorescence Energy Transfer (FRET) assay: co-activator SRC1(2) peptide interaction with RORγ-LBD; assay type: biochemical; details: RORγ-LBD / SRC1(2) peptide, read-out: mean pIC50 (converted)
T1 construct: His6 with thrombin site) (N); made in house; host or cells: E. coli BL21(DE3), modified pET21a vector
T1 sequence (P51449 263-518): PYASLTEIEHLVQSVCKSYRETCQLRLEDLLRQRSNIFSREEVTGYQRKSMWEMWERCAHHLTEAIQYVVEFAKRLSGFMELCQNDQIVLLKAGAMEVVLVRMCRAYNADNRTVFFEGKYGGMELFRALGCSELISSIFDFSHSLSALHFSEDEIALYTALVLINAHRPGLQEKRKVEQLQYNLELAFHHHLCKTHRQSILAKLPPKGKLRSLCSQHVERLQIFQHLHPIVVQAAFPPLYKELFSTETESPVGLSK
Excerpt: Dual Fluorescence Energy Transfer (FRET) Assay
This assay is based on the knowledge that nuclear receptors interact with cofactors (transcription factors) in a ligand dependent manner. RORγ is a typical nuclear receptor in that it has an AF2 domain in the ligand binding domain (LBD) which interacts with co-activators.
This assay measures ligand-mediated interaction of the co-activator peptide with the purified bacterial-expressed RORγ ligand binding domain (RORγ-LBD) to indirectly assess ligand binding. RORγ has a basal level of interaction with the co-activator SRC1(2) in the absence of ligand, thus, it is possible to find ligands that inhibit or enhance the RORγ/SRC1(2) interaction.
Human RORγ Ligand Binding Domain (RORγ-LBD) was expressed in E. coli strain BL21(DE3) as an amino-terminal polyhistidine tagged fusion protein. DNA encoding this recombinant protein was sub-cloned into a modified pET21a expression vector (Novagen).
Approximately 50 g E. coli cell pellet was resuspended in 300 mL of lysis buffer (30 mM imidazole pH 7.0 and 150 mM NaCl). Cells were lysed by sonication and cell debris was removed by centrifugation for 30 minutes at 20,000 g at 4° C. […] The clarified lysate was loaded onto a column (XK-26) packed with ProBond Nickel Chelating resin (InVitrogen), pre-equilibrated with 30 mM imidazole pH 7.0 and 150 mM NaCl. After washing to baseline absorbance with the equilibration buffer, the column was developed with a gradient from 30 to 500 mM imidazole pH 7.0. Column fractions containing the RORγ-LBD protein were pooled and concentrated to a volume of 5 mLs. The concentrated protein was loaded onto a Superdex 200 column pre-equilibrated with 20 mM Tris-Cl pH 7.2 and 200 mM NaCl. The fractions containing the desired RORγ-LBD protein were pooled together.
Purified RORγ-LBD was buffer exchanged by exhaustive dialysis [3 changes of at least 20 volumes (>8000×)] against PBS [100 mM NaPhosphate, pH 8 and 150 mM NaCl]. […] The modified RORγ-LBD was dialyzed against 2 buffer changes—TBS pH 8.0 containing 5 mM DTT, 2 mM EDTA and 2% sucrose—each at least 20 times of the volume. The modified protein was distributed into aliquots, frozen on dry ice and stored at −80° C. The biotinylated RORγ-LBD was subjected to mass spectrometric analysis to reveal the extent of modification by the biotinylation reagent.
Biotinylated SRC1(2) solution was prepared by adding an appropriate amount of biotinylated SRC1(2) from the 100 uM stock solution to a buffer containing 10 mM of freshly added DTT from solid to give a final concentration of 40 nM. An appropriate amount of Europium labeled Streptavidin was then added to the biotinylated SRC1(2) solution in a tube to give a final concentration of 10 nM. The tube was inverted gently and incubated for 15 minutes at room temperature. Twenty-fold excess biotin from the 10 mM stock solution was added and the tube was inverted gently and incubated for 10 minutes at room temperature.
Biotinylated RORγ-LBD solution was prepared by adding an appropriate amount of biotinylated RORγ-LBD from the stock solution to a buffer containing 10 mM of freshly added DTT from solid to give a final concentration of 40 nM. An appropriate amount of APC labeled Streptavidin was then added to the biotinylated RORγ-LBD solution in a tube to give a final concentration of 20 nM. The tube was inverted gently and incubated for 15 minutes at room temperature. Twenty-fold excess biotin from the 10 mM stock solution was then added and the tube was inverted gently and incubated for 10 minutes at room temperature.
The reaction mixtures were incubated for 5 minutes. […] The plates were incubated for 1 hour and then read on ViewLux in Lance mode for EU/APC.

IC50 | SMILES
≤ 15.8 nM | Cc1ccc(N(CC(C)C)S(=O)(=O)c2ccc(OCC3CCOCC3)c(C)c2)c(C)c1 [Example E24]
